Laboratory results published in US9096504B2, “Controlled chemical release of hydrogen sulfide” (Washington State University, priority 2010, dated 2015).

Tests used:
[1] = Methylene blue experiment for H2S release in PBS buffer in presence of cysteine or GSH; assay type: physicochemical; details: PBS buffer pH 7.4, donor 150 μM
Description: Na2S Standard Curve for H2S Release
2.0 mM Na2S stock solution was prepared as described in previous section. Five aliquots of Na2S solution at 3.75 μL, 7.50 μL, 15.0 μL, 45.0 μL, and 112.5 μl were injected into the 4-mL vials containing H2O (1.0 mL), zinc acetate (1% w/v, 100 μL), N,N-dimethyl-1,4-phenylenediamine sulfate (200 μL, 20 mM) in 7.2 M HCl and ferric chloride (200 μL, 30 mM) in 1.2 M HCl, respectively. Stir the resultant solution for 15 minutes at room temperature. The absorbance (670 nm) of aliquots was determined using a UV-Vis spectrometer.
Cysteine stock solution in H2O (400 mM, 112.5 μL) and N-(benzoylthio)benzamide 2 stock solution in THF (40 mM, 112.5 μL) were added into PBS buffer solution (30 mL, pH=7.4) containing EDTA (50 mM, 60 μL), respectively. Every 3 minute, 1.0 mL of aliquots were taken to 4-mL vials containing, zinc acetate (1% w/v, 100 μL), N,N-dimethyl-1,4-phenylenediamine sulfate (200 μL, 20 mM) in 7.2 M HCl and ferric chloride (200 μL, 30 mM) in 1.2 M HCl within 3 hours. Then the absorbance (670 nm) was determined using a UV-Vis spectrometer.
The initial concentrations of H2S-donors shown below were 150 μM and the detection of H2S released from these molecules was measured in presence of 1.5 mM of cysteine or GSH, unless otherwise indicated.

[2] = H2S release measurement in plasma (colorimetry method); assay type: in vitro ADME, bovine/calf; details: plasma containing ~500 μM cysteine
Description: It is known that plasma contains significant amount of free cysteine. We therefore measured H2S generation of 2-13 in plasma (containing ˜500 μM cysteine) using a colorimetry method.
To 0.5 mL of bovine/calf plasma was added […] containing zinc acetate (1% w/v, 100 μL) and trichloroacetic acid (10% w/v, 600 μL). The mixture was allowed to centrifuge for 10 min (5000 g). The precipitate was filtered out and 1.2 mL of the clear solution was transferred into a 2-mL vial containing N,N-dimethyl-1,4-phenylenediamine sulfate (150 μL, 20 mM) in 7.2 M HCl and ferric chloride (150 μL, 30 mM) in 1.2 M HCl. […] The absorbance (670 nm) of aliquots of the resulting solution (1.5 mL) was determined using a UV-VIS spectrometer. The concentration of MB^+ was then converted to the concentration of H2S according to the reaction equation shown above and the calibration curve was generated by plotting the absorbance versus [H2S].
To 2.0 mL of bovine/calf plasma (containing cysteine […]) was added 2 mL water solution containing 5a (25 μl, of 80 mM in DMSO). […] Subsequently, N,N-dimethyl-p-phenylenediamine sulfate (20 mM, 150 μL) in 7.2 M HCl was added followed by FeCl3 (30 mM, 150 μL) in 1.2 M HCl, and absorbance (670 nm) of aliquots of the resulting solution (1.5 mL) was determined 20 minutes thereafter using a UV-Vis spectrometer.

[3] = test system: mice subjected to ischemia followed by reperfusion; assay: Mouse model of ischemia followed by reperfusion (Elrod et al.); assay type: in vivo; details: compared to vehicle treated mice
Description: The effects of compound 2 have been tested using the mouse model of Elrod et al. (Proc. Natl. Acad. Sci. USA 2007, 104, 15560). Briefly, mice were subjected to ischemia followed by reperfusion. During reperfusion, compound 2 was administered to the mice.

[4] = 1.5 mM GSH, experimental period 3 hours

O=C(NSC(=O)c1ccccc1)c1ccccc1 [Compound 2, N-(benzoylthio)benzamide]
GSH Peaking time [1, 4]: 39 min | GSH [H2S] at peaking time [1, 4]: 140.4 µM | Cys Peaking time ([1]; 1.5 mM cysteine): 24 min | Cys [H2S] at peaking time ([1]; 1.5 mM cysteine): 143.6 µM | H2S generation in plasma [2]: time-dependent H2S release | reduction in infarct size per area-at-risk (INF/AAR) ([3]; 100 μg/kg bolus during reperfusion, maximal): 40% | infarct size per area-at-risk (INF/AAR), dose dependence ([3]; administered during reperfusion): dose-dependent reduction
